Patent US20110281744A1, “METHOD OF IDENTIFYING COMPOUNDS THAT MODULATE REGULATION OF IRON RESPONSE ELEMENTS” (priority 2007, published 2011)
Read-outs that look alike come from different tables or passages of the source. Ends that are not written are not given here.

Tests used:
[1] = tested on: TfR; settings: melanoma cells; cited from earlier work
[2] = tested on: melanoma cells; settings: cited from earlier work
[3] = tested on: DMT1; settings: cited from earlier work
[4] = tested on: iron uptake; settings: through reduction in IRE(+) DMT1 mRNA; cited from earlier work
[5] = tested on: actin mRNA; assay: Polysome analysis with northern blot: actin mRNA translation in treated cultured cells (control); type: cell-based; settings: cells treated overnight with iron or iron plus desferal; FIG. 1B left panel
Description: (§1) FIG. 1A top panel is a graph showing polysome analysis with optical density as a function of percent sucrose. Total RNA is isolated from cultured cells by lysing the cells in polysome extraction buffer (15 mM Tris, pH 7.6, 0.3 M NaCl, 15 mM MgCl2 and 1% Triton X-100) containing 100 ng/ml cyclohexamide and 1 mg/ml heparin. The lysates are then layered onto a 10-50% sucrose gradient and centrifuged at 38,000 rpm for 2 hrs. The gradients are fractionated by monitoring UV absorbance at 254 nm.
(§2) FIG. 1A bottom panel is a northern blot showing Actin and Ferratin RNA. RNA was isolated from each fraction using RNeasy 96 Universal Tissue Kit (Qiagen) then loaded on a agarose gel and subjected to northern analysis with the appropriate probe. The high molecular weight fractions (6-12) represent those for which protein synthesis is occurring.
(§3) FIG. 1B are northern blots showing the indicated RNA. Cells were treated overnight with either iron oriron plus desferal to chelate iron and RNA was isolated and analyzed as described above.

[6] = tested on: ferritin mRNA; assay: Polysome analysis with northern blot: ferritin mRNA translation in treated cultured cells; type: cell-based; settings: cells treated overnight with iron or iron plus desferal; FIG. 1B right panel
Description: as §1, §2, §3

[7] = tested on: TfR; settings: curcumin treatment; cited from earlier work
[8] = tested on: IRP; settings: curcumin treatment; cited from earlier work
[9] = tested on: ferritin; settings: curcumin treatment; cited from earlier work

Molecule: O=C1O[C@H]([C@@H](O)CO)C([O-])=C1O.[Na+] [sodium ascorbate, Sodium ascorbate]
- TfR level [1]: reduction in TfR
- cell death (apoptosis) [2]: apoptosis
- intracellular iron [2]: reduced intracellular iron

Molecule: hepcidin (DTHFPICIFCCGCCHRSKCGMCCKT; ends and bridges not checked; cysteine pairing not given here; UniProt P81172 60-84, looked up) [a naturally occurring peptide]
- DMT1 protein isoforms with or without IRE [3]: reduces DMT1 protein isoforms containing the IRE, but not those lacking the IRE
- iron uptake [4]: significantly reduce iron uptake

Molecule: CC(=O)N(O)CCCCCNC(=O)CCC(=O)N(O)CCCCCNC(=O)CCC(=O)N(O)CCCCCN [desferal]
- effect on translation of actin mRNA [5]: neither iron nor deseferal treatment had an effect
- effect on ferritin translation (polysome distribution of ferritin mRNA) [6]: inhibits translation

Molecule: [Fe] [iron]
- effect on translation of actin mRNA [5]: neither iron nor deseferal treatment had an effect
- effect on ferritin translation (polysome distribution of ferritin mRNA) [6]: ferritin translation increases

Molecule: COc1cc(/C=C/C(=O)CC(=O)/C=C/c2ccc(O)c(OC)c2)ccc1O [curcumin, Curcumin]
- TfR level [7]: increase in TfR
- IRP activation [8]: increased IRP activation
- ferritin level [9]: decrease in ferritin
